Target: T1, TrkA (Homo sapiens, UniProt P04629)
T1 construct: aa 441-796; His; purchased Invitrogen PV3144
Assay: Isolated TRK enzyme assay (HTRF KinEASE-TK kit), PV3144 TrkA enzyme assay
Format: biochemical
Settings: PV3144 TrkA enzyme assay, recombinant His-tagged cytoplasmic domain aa 441-796, 4 nM enzyme, 40 uM ATP; arithmetic mean where more than one reading; read-out: Trka enzyme (IC50)
Description: Isolated TRK Enzyme assays use the HTRF KinEASE-TK kit (Cisbio Cat#62TK0PEJ) with recombinant His-tagged cytoplasmic domains of each TRK receptor sourced from Invitrogen (see table below). This activity-assay measures the phosphorylation of tyrosine residues within a substrate from the HTRF kit which has been validated by Cisbio for a variety of tyrosine kinases including the TRK receptors.
0.5 mM stock solutions of test compounds are prepared and serially diluted in 100% DMSO. A standard curve using the compound of Example 135 disclosed in WO2005/116035 of 150 uM is also prepared on each test plate. High percentage effect (HPE) is defined by 150 uM (using the compound of Example 135 as disclosed in WO2005/116035) and 0% effect (ZPE) is defined by 100% DMSO. Greiner low volume black plates containing 0.2 ul of serially diluted compound, standard and HPE/ZPE are created using the Bravo nanolitre dispenser.
1X enzyme buffer is prepared from 5X Enzymatic Buffer from the Cisbio KinEASE TK kit using MilliQ water. The buffer is then supplemented with 10 mM MgCl and 2 mM DTT (both from Sigma). In the case of TRKB, the buffer is also supplemented with 125 nM Supplement Enzymatic Buffer (SEB) from the Cisbio kit.
2X FAC of enzyme and 2X FAC ATP diluted in 1X complete enzyme buffer is incubated at room temperature for 20 minutes to preactivate the enzyme. Following this preactivation step, 5 ul/well of enzyme+ATP mix is added using a Multidrop Micro to the assay plate, spotted with 0.2 ul 100% DMSO compound. This is left for 20 mins at room temperature before adding 5 ul of 2 uM TK-substrate-Biotin (from the Cisbio kit) diluted in 1X enzyme buffer (1 uM FAC) using the Multidrop Micro. The reaction is incubated at room temperature for the optimized assay reaction time (see table). The reaction is stopped by adding 10 ul/well HTRF Detection Buffer containing 0.25 uM Streptavidin-XL665 (0.125 uM FAC) and 1:200 TK Antibody-Cryptate using a Multidrop.
After the Detection Reagent addition, plates are covered and incubated at room temperature for 60 minutes. HTRF signal is read using an Envision reader, measured as a ratio of emissions at two different wavelengths, 620 nm and 665 nm. […] Test compound data are expressed as percentage inhibition defined by HPE and ZPE values for each plate. Percentage inhibition in the presence of test compound is plotted against compound concentration on a log scale to determine an IC50 from the resultant sigmoid curve.
Below are TrkA IC50 data generated using the PV3144 TrkA enzyme assay. Where more than one reading was taken, the arithmetic mean is presented.

T1 sequence (P04629 441-796): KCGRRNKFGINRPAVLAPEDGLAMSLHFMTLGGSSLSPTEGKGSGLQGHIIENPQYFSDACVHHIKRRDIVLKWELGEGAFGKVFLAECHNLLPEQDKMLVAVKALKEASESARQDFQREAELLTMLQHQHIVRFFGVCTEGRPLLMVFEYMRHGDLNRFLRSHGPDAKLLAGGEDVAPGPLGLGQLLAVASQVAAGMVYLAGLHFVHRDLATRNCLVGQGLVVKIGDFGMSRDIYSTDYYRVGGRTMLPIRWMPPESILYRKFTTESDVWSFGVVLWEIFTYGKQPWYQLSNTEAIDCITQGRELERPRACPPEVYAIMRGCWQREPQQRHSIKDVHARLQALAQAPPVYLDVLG

Compound	IC50 [nM]
Cc1cn(CC(=O)Nc2cc(C(=O)c3cn(C(C)C)c4ncncc34)ccn2)nn1 [Example 121, 2-(4-methyl-1H-1,2,3-triazol-1-yl)-N-(4-{[7-(propan-2-yl)-7H-pyrrolo[2,3-d]pyrimidin-5-yl]carbonyl}pyridin-2-yl)acetamide]	328
CC1(n2cc(C(=O)c3cc(NC(=O)Cc4ccc(C(F)(F)F)cc4)ccn3)c3cncnc32)COC1 [Example 167, N-(2-{[7-(3-methyloxetan-3-yl)-7H-pyrrolo[2,3-d]pyrimidin-5-yl]carbonyl}pyridin-4-yl)-2-[4-(trifluoromethyl)phenyl]acetamide]	72.9
O=C(Cc1cccc(C(F)(F)F)c1)Nc1ccnc(C(=O)c2cn(C(CO)CO)c3ncncc23)c1 [Example 96, N-(2-{[7-(1,3-dihydroxypropan-2-yl)-7H-pyrrolo[2,3-d]pyrimidin-5-yl]carbonyl}pyridin-4-yl)-2-[3-(trifluoromethyl)phenyl]acetamide]	139
CC(C)(CO)n1cc(C(=O)c2cc(NC(=O)Cc3ccc(C(F)(F)F)cc3)ccn2)c2cncnc21 [Example 55, N-(2-{[7-(1-hydroxy-2-methylpropan-2-yl)-7H-pyrrolo[2,3-d]pyrimidin-5-yl]carbonyl}pyridin-4-yl)-2-[4-(trifluoromethyl)phenyl]acetamide]	12.9
CC(C)(CO)n1cc(C(=O)c2ccnc(NC(=O)Cc3ccc(C#N)cc3)c2)c2cncnc21 [Example 111, 2-(4-cyanophenyl)-N-(4-{[7-(1-hydroxy-2-methylpropan-2-yl)-7H-pyrrolo[2,3-d]pyrimidin-5-yl]carbonyl}pyridin-2-yl)acetamide]	31.8
O=C(Cc1ccc(C(F)(F)F)cc1)Nc1cc(C(=O)c2cn(CCO)c3ncncc23)ccn1 [Example 141, N-(4-{[7-(2-hydroxyethyl)-7H-pyrrolo[2,3-d]pyrimidin-5-yl]carbonyl}pyridin-2-yl)-2-[4-(trifluoromethyl)phenyl]acetamide]	16.4
CC(C)n1cc(C(=O)c2ccnc(NC(=O)Cc3ccc(Cl)cc3)c2)c2cnc(N)nc21 [Example 44, N-[4-(2-Amino-7-isopropyl-7H-pyrrolo[2,3-d]pyrimidine-5-carbonyl)-pyridin-2-yl]-2-(4-chloro-phenyl)-acetamide]	10.2
CC(C)n1cc(C(=O)c2ccnc(NC(=O)Cc3ccccc3OC(F)(F)F)c2)c2cncnc21 [Example 119, N-(4-{[7-(propan-2-yl)-7H-pyrrolo[2,3-d]pyrimidin-5-yl]carbonyl}pyridin-2-yl)-2-[2-(trifluoromethoxy)phenyl]acetamide]	71.1
CC1(n2cc(C(=O)c3cc(NC(=O)Cc4ccc(Cl)cn4)ccn3)c3cncnc32)COC1 [Example 168, 2-(5-chloropyridin-2-yl)-N-(2-{[7-(3-methyloxetan-3-yl)-7H-pyrrolo[2,3-d]pyrimidin-5-yl]carbonyl}pyridin-4-yl)acetamide]	155
C[C@H](CO)n1cc(C(=O)c2cc(NC(=O)Cc3ccc(Cl)cc3)ccn2)c2cncnc21 [Example 28, 2-(4-chlorophenyl)-N-[2-({7-[(2R)-1-hydroxypropan-2-yl]-7H-pyrrolo[2,3-d]pyrimidin-5-yl}carbonyl)pyridin-4-yl]acetamide]	111
CC(C)(C)n1cc(C(=O)c2cc(NC(=O)Cc3ccc(F)cc3)ccn2)c2cncnc21 [Example 43, N-{2-[(7-tert-butyl-7H-pyrrolo[2,3-d]pyrimidin-5-yl)carbonyl]pyridin-4-yl}-2-(4-fluorophenyl)acetamide]	15.7
CC(C)c1cn(CC(=O)Nc2cc(C(=O)c3cn(C(C)C)c4ncncc34)ccn2)nn1 [Example 164, N-(4-{[7-(propan-2-yl)-7H-pyrrolo[2,3-d]pyrimidin-5-yl]carbonyl}pyridin-2-yl)-2-[4-(propan-2-yl)-1H-1,2,3-triazol-1-yl]acetamide]	31.8
Cc1cc(C(F)(F)F)nn1CC(=O)Nc1ccnc(C(=O)c2cn(C(C)C)c3nc(N)ncc23)c1 [Example 84, N-(2-{[2-amino-7-(propan-2-yl)-7H-pyrrolo[2,3-d]pyrimidin-5-yl]carbonyl}pyridin-4-yl)-2-[5-methyl-3-(trifluoromethyl)-1H-pyrazol-1-yl]acetamide]	27.1
CC(C)n1cc(C(=O)c2ccnc(NC(=O)Cc3ccc(Cl)cc3)c2)c2cncnc21 [Example 150, 2-(4-chlorophenyl)-N-(4-{[7-(propan-2-yl)-7H-pyrrolo[2,3-d]pyrimidin-5-yl]carbonyl}pyridin-2-yl)acetamide]	85.3
O=C(Cc1ccc(Cl)cc1)Nc1ccnc(C(=O)c2cn(C(CO)CO)c3ncncc23)c1 [Example 92, 2-(4-chlorophenyl)-N-(2-{[7-(1,3-dihydroxypropan-2-yl)-7H-pyrrolo[2,3-d]pyrimidin-5-yl]carbonyl}pyridin-4-yl)acetamide]	747
CC(C)n1cc(C(=O)c2ccnc(NC(=O)Cc3ccccc3)c2)c2cncnc21 [Example 149, 2-phenyl-N-(4-{[7-(propan-2-yl)-7H-pyrrolo[2,3-d]pyrimidin-5-yl]carbonyl}pyridin-2-yl)acetamide]	171
CC(C)n1cc(C(=O)c2ccnc(NC(=O)Cc3ccc(C#N)cc3)c2)c2cnc(N)nc21 [Example 45, N-(4-{[2-amino-7-(propan-2-yl)-7H-pyrrolo[2,3-d]pyrimidin-5-yl]carbonyl}pyridin-2-yl)-2-(4-cyanophenyl)acetamide]	36.1
CC(C)n1cc(C(=O)c2ccnc(NC(=O)Cc3ccc(F)cn3)c2)c2cncnc21 [Example 73, 2-(5-fluoropyridin-2-yl)-N-(4-{[7-(propan-2-yl)-7H-pyrrolo[2,3-d]pyrimidin-5-yl]carbonyl}pyridin-2-yl)acetamide]	58.2
CC(C)(CO)n1cc(C(=O)c2cc(NC(=O)Cn3cc(C(F)(F)F)nn3)ccn2)c2cncnc21 [Example 54, N-(2-{[7-(1-hydroxy-2-methylpropan-2-yl)-7H-pyrrolo[2,3-d]pyrimidin-5-yl]carbonyl}pyridin-4-yl)-2-[4-(trifluoromethyl)-1H-1,2,3-triazol-1-yl]acetamide]	46.2
O=C(Cc1cccc(OC(F)(F)F)c1)Nc1ccnc(C(=O)c2cn(C(CO)CO)c3ncncc23)c1 [Example 97, N-(2-{[7-(1,3-dihydroxypropan-2-yl)-7H-pyrrolo[2,3-d]pyrimidin-5-yl]carbonyl}pyridin-4-yl)-2-[3-(trifluoromethoxy)phenyl]acetamide]	876
CC(CO)n1cc(C(=O)c2ccnc(NC(=O)Cc3ccc(C#N)cc3)c2)c2cncnc21 (single isomer, unassigned) [Example 33, 2-(4-cyanophenyl)-N-(4-{[7-(1-hydroxypropan-2-yl)-7H-pyrrolo[2,3-d]pyrimidin-5-yl]carbonyl}pyridin-2-yl)acetamide]	2560
C[C@@H](CO)n1cc(C(=O)c2cc(NC(=O)Cc3ccc(C(F)(F)F)cc3)ccn2)c2cncnc21 [Example 17, N-[2-({7-[(2S)-1-hydroxypropan-2-yl]-7H-pyrrolo[2,3-d]pyrimidin-5-yl}carbonyl)pyridin-4-yl]-2-[4-(trifluoromethyl)phenyl]acetamide]	72.2
CC(C)n1cc(C(=O)c2cc(NC(=O)Cc3cccc(S(C)(=O)=O)c3)ccn2)c2cncnc21 [Example 81, 2-[3-(methylsulfonyl)phenyl]-N-(2-{[7-(propan-2-yl)-7H-pyrrolo[2,3-d]pyrimidin-5-yl]carbonyl}pyridin-4-yl)acetamide]	268
